From ChEMBL document CHEMBL4406860, “Discovery of potent ureido tetrahydrocarbazole derivatives for cancer treatments through targeting tumor-associated macrophages” (Eur J Med Chem, 2019)
The source made the active and inactive calls. The calls are words filed in the database; no cut-off is given here.

How the values were obtained:
RAW264.7 [1] = experiment: Increase in TNF-alpha production in mouse RAW264.7 cells at 50 uM incubated for 24 hrs by ELISA (reference value: 1133.56 +/- 46.61 pg/ml); format: functional
RAW264.7 [2] = experiment: Increase in TNF-alpha production in mouse RAW264.7 cells incubated for 24 hrs by ELISA; format: functional, cell-based; details: RAW264.7, 24 h
[3] = Increase in TNF-alpha production in mouse BMDM cells incubated for 24 hrs by ELISA; format: functional, cell-based
RAW264.7 [4] = experiment: Inhibition of M2-phenotype associated markers in mouse RAW264.7 cells assessed as F4/80-CD206 expression in presence of IL4 incubated for 24 hrs by flow cytometry (reference value: 7.54 %); format: functional
[5] = tested on: Lewis lung carcinoma cell line; experiment: Antitumor activity against mouse LLC cells xenografted in C57BL/6 mouse assessed as reduction in tumor volume in prescence of anti-PD1 at 5 mg/kg, ip administered every other day for 30 days; format: functional, organism-based
RAW264.7 [6] = experiment: Inhibition of M2-phenotype markers expression in mouse RAW264.7 cells assessed as decrease in IL-4 -induced in Ym-1R expression incubated for 1 hr by qRT-PCR; format: functional, cell-based
[7] = tested on: Lewis lung carcinoma cell line; experiment: Antitumor activity against mouse LLC cells xenografted in C57BL/6 mouse assessed as reduction in tumor weight in prescence of anti-PD1 at 5 mg/kg, ip administered every other day for 30 days; format: functional, organism-based
[8] = Toxicity in C57BL/6 mouse xenografted with mouse LLC cells assessed as effect on lungs at 5 mg/kg, ip administered every other day for 30 days by H and E staining based microscopic analysis; format: organism-based; details: in vivo, 720 h
RAW264.7 [9] = experiment: Induction of M1-phenotype markers expression in mouse RAW264.7 cells assessed as increase in iNOS expression incubated for 1 hr by qRT-PCR; format: functional, cell-based
Mus musculus [10] = experiment: In vivo inhibition of M2-phenotype associated marker in C57BL/6 mouse xenografted with mouse LLC cells assessed as decrease in F4/80-CD206 expression in presence of anti-PD1 at 5 mg/kg, ip administered every other day for 30 days by DAPI staining based immunofluorescence microscopic analysis; format: functional, organism-based
RAW264.7 [11] = experiment: Induction of M1-phenotype markers expression in mouse RAW264.7 cells assessed as increase in IL-12alpha expression incubated for 1 hr by qRT-PCR; format: functional, cell-based
RAW264.7 [12] = experiment: Inhibition of M2-phenotype markers expression in mouse RAW264.7 cells assessed as decrease in IL-4 -induced in Arg-1 expression incubated for 1 hr by qRT-PCR; format: functional, cell-based
[13] = tested on: Lewis lung carcinoma cell line; experiment: Antitumor activity against mouse LLC cells xenografted in C57BL/6 mouse assessed as reduction in tumor weight at 5 mg/kg, ip administered every other day for 30 days; format: functional, organism-based
RAW264.7 [14] = experiment: Cytotoxicity against mouse RAW264.7 cells assessed as reduction in cell viability at 1000 uM incubated for 24 hrs by CCK-8 assay; format: cell-based; details: raw264.7, 24 h
Mus musculus [15] = experiment: In vivo inhibition of M2-phenotype associated marker in C57BL/6 mouse xenografted with mouse LLC cells assessed as decrease in F4/80-CD206 expression at 5 mg/kg, ip administered every other day for 30 days by DAPI staining based immunofluorescence microscopic analysis; format: functional, organism-based
[16] = Toxicity in C57BL/6 mouse xenografted with mouse LLC cells assessed as effect on body weight in prescence of anti-PD1 (1 mg/kg) at 5 mg/kg, ip administered every other day for 30 days; format: organism-based; details: in vivo, 720 h
[17] = Toxicity in C57BL/6 mouse xenografted with mouse LLC cells assessed as effect on liver at 5 mg/kg, ip administered every other day for 30 days by H and E staining based microscopic analysis; format: organism-based; details: in vivo, 720 h
[18] = tested on: Lewis lung carcinoma cell line; experiment: Antitumor activity against mouse LLC cells xenografted in C57BL/6 mouse assessed as reduction in tumor volume at 5 mg/kg, ip administered every other day for 30 days; format: functional, organism-based
Mus musculus [19] = experiment: In vivo induction of M1-phenotype associated marker in C57BL/6 mouse xenografted with mouse LLC cells assessed as increase in F4/80-iNOS expression at 5 mg/kg, ip administered every other day for 30 days by DAPI staining based immunofluorescence microscopic analysis; format: functional, organism-based
RAW264.7 [20] = experiment: Induction of M1-phenotype associated markers in mouse RAW264.7 cells assessed as F4/80-MHC II expression incubated for 24 hrs by flow cytometry (reference value: 12.1 %); format: functional
RAW264.7 [21] = experiment: Inhibition of M2-phenotype markers expression in mouse RAW264.7 cells assessed as decrease in IL-4 -induced CD206 expression incubated for 1 hr by qRT-PCR; format: functional, cell-based
RAW264.7 [22] = experiment: Induction of M1-phenotype markers expression in mouse RAW264.7 cells assessed as increase in TNFalpha expression incubated for 1 hr by qRT-PCR; format: functional, cell-based
RAW264.7 [23] = experiment: Induction of M1-phenotype markers expression in mouse RAW264.7 cells assessed as increase in IL-1beta expression incubated for 1 hr by qRT-PCR; format: functional, cell-based
Mus musculus [24] = experiment: In vivo induction of M1-phenotype associated marker in C57BL/6 mouse xenografted with mouse LLC cells assessed as increase in F4/80-iNOS expression in presence of anti-PD1 at 5 mg/kg, ip administered every other day for 30 days by DAPI staining based immunofluorescence microscopic analysis; format: functional, organism-based
RAW264.7 [25] = experiment: Inhibition of M2-phenotype markers expression in mouse RAW264.7 cells assessed as decrease in IL-4 -induced in Fizz-1 expression incubated for 1 hr by qRT-PCR; format: functional, cell-based
[26] = Toxicity in C57BL/6 mouse xenografted with mouse LLC cells assessed as effect on body weight at 5 mg/kg, ip administered every other day for 30 days; format: organism-based; details: in vivo, 720 h

Cn1cc(-c2ccc3c4c([nH]c3c2)CCC(NC(=O)Nc2ccc(Cl)c(C(F)(F)F)c2)C4)cn1 (configuration not stated)
Activity (RAW264.7 [1]): 3770.66 pg/mL

O=C(Nc1ccc(Cl)c(C(F)(F)F)c1)NC1CCc2[nH]c3cccc(C(=O)N4CCOCC4)c3c2C1 (configuration not stated)
Activity (RAW264.7 [1]): 4025.54 pg/mL

O=C(Nc1ccc(Cl)c(C(F)(F)F)c1)NC1CCc2[nH]c3c(C(=O)N4CCOCC4)cccc3c2C1 (configuration not stated)
Activity (RAW264.7 [1]): 4127.15 pg/mL

O=C(Nc1ccc(Cl)c(C(F)(F)F)c1)NC1CCc2[nH]c3cccc(C(=O)NCCOCCO)c3c2C1 (configuration not stated)
Activity (RAW264.7 [1]): 500.62 pg/mL

O=C(Nc1ccc(Cl)c(C(F)(F)F)c1)NC1CCc2[nH]c3ccc(C(=O)NCCOCCO)cc3c2C1 (configuration not stated)
Activity (RAW264.7 [1]): 561.78 pg/mL

O=C(Nc1ccc(Cl)c(C(F)(F)F)c1)NC1CCc2[nH]c3ccc(C(=O)N4CCOCC4)cc3c2C1 (configuration not stated)
Activity (RAW264.7 [1]): 5510.03 pg/mL

CN1CCN(C(=O)c2cccc3[nH]c4c(c23)CC(NC(=O)Nc2ccc(Cl)c(C(F)(F)F)c2)CC4)CC1 (configuration not stated)
Activity (RAW264.7 [1]): 3714.66 pg/mL

O=C(Nc1ccc(Cl)c(C(F)(F)F)c1)NC1CCc2[nH]c3c(C(=O)NC4CC4)cccc3c2C1 (configuration not stated)
EC50 (RAW264.7 [2]): 18.4 µM | EC50 [3]: 63.5 µM | Activity (RAW264.7 [1]): 7730.01 pg/mL

CC(C)NC(=O)c1ccc2c3c([nH]c2c1)CCC(NC(=O)Nc1ccc(Cl)c(C(F)(F)F)c1)C3 (configuration not stated)
Activity (RAW264.7 [1]): 5566.34 pg/mL

O=C(Nc1ccc(Cl)c(C(F)(F)F)c1)NC1CCc2[nH]c3cc(C(=O)NCCCO)ccc3c2C1 (configuration not stated)
Activity (RAW264.7 [1]): 5030.39 pg/mL

O=C(Nc1ccc(Cl)c(C(F)(F)F)c1)NC1CCc2[nH]c3cccc(-c4cnn(CCO)c4)c3c2C1 (configuration not stated)
EC50 (RAW264.7 [2]): 13.4 µM | EC50 [3]: 20.9 µM | Activity (RAW264.7 [1]): 6714.86 pg/mL

O=C(Nc1ccc(Cl)c(C(F)(F)F)c1)NC1CCc2[nH]c3cccc(C(=O)NC4CC4)c3c2C1 (configuration not stated)
Activity (RAW264.7 [1]): 6427.32 pg/mL

CN1CCN(C(=O)c2ccc3c4c([nH]c3c2)CCC(NC(=O)Nc2ccc(Cl)c(C(F)(F)F)c2)C4)CC1 (configuration not stated)
Activity (RAW264.7 [1]): 6552.76 pg/mL

O=C(Nc1ccc(Cl)c(C(F)(F)F)c1)NC1CCc2[nH]c3cc(C(=O)N4CCOCC4)ccc3c2C1 (configuration not stated)
Activity (RAW264.7 [1]): 6085.83 pg/mL

O=C(Nc1ccc(Cl)c(C(F)(F)F)c1)NC1CCc2[nH]c3ccc(C(=O)NC4CC4)cc3c2C1 (configuration not stated)
Activity (RAW264.7 [1]): 4458.11 pg/mL

O=C(Nc1ccc(Cl)c(C(F)(F)F)c1)NC1CCc2[nH]c3cc(C(=O)NC4CC4)ccc3c2C1 (configuration not stated)
Activity (RAW264.7 [1]): 6034.58 pg/mL

CN1CCN(C(=O)c2cccc3c4c([nH]c23)CCC(NC(=O)Nc2ccc(Cl)c(C(F)(F)F)c2)C4)CC1 (configuration not stated)
Activity (RAW264.7 [1]): 2506.98 pg/mL

O=C(Nc1ccc(Cl)c(C(F)(F)F)c1)NC1CCc2[nH]c3cc(C(=O)NCCO)ccc3c2C1 (configuration not stated)
Activity (RAW264.7 [1]): 4377.67 pg/mL

O=C(Nc1ccc(Cl)c(C(F)(F)F)c1)NC1CCc2[nH]c3cc(-c4cnn(CCO)c4)ccc3c2C1 (configuration not stated)
Activity (RAW264.7 [1]): 6043.84 pg/mL

CN1CCN(C(=O)c2ccc3[nH]c4c(c3c2)CC(NC(=O)Nc2ccc(Cl)c(C(F)(F)F)c2)CC4)CC1 (configuration not stated)
Activity (RAW264.7 [1]): 4935.9 pg/mL

Cn1cc(-c2cccc3[nH]c4c(c23)CC(NC(=O)Nc2ccc(Cl)c(C(F)(F)F)c2)CC4)cn1 (configuration not stated)
inhibition (INH) (RAW264.7 [4]): 8.76% | Activity [5]: Active | inhibition (RAW264.7 [6]): Dose-dependent effect | Activity [7]: Active | Activity [8]: Non-Toxic | Activity (RAW264.7 [9]): Dose-dependent effect | Activity (Mus musculus [10]): Active | Activity (RAW264.7 [11]): Dose-dependent effect | inhibition (RAW264.7 [12]): Dose-dependent effect | Activity [13]: Active | Activity (RAW264.7 [14]): Non-Toxic | Activity (Mus musculus [15]): Active | EC50 (RAW264.7 [2]): 17.2 µM | Activity [16]: Non-Toxic | Activity [17]: Non-Toxic | Activity [18]: Active | Activity (Mus musculus [19]): Active | Activity (RAW264.7 [20]): 24.4% | EC50 [3]: 18.9 µM | inhibition (RAW264.7 [21]): Dose-dependent effect | Activity (RAW264.7 [22]): Dose-dependent effect | Activity (RAW264.7 [23]): Dose-dependent effect | Activity (Mus musculus [24]): Active | Activity (RAW264.7 [1]): 5994.12 pg/mL | inhibition (RAW264.7 [25]): Dose-dependent effect | Activity [26]: Non-Toxic

O=C(Nc1ccc(Cl)c(C(F)(F)F)c1)NC1CCc2[nH]c3c(C(=O)NCCOCCO)cccc3c2C1 (configuration not stated)
Activity (RAW264.7 [1]): 3364.65 pg/mL

O=C(Nc1ccc(Cl)c(C(F)(F)F)c1)NC1CCc2[nH]c3cc(C(=O)NCCOCCO)ccc3c2C1 (configuration not stated)
Activity (RAW264.7 [1]): 6968.79 pg/mL
